From patent publication US20260355161A1, “NOVEL HETEROCYCLYL-PHENYL-METHYLAMINE DERIVATIVES, PREPARATION METHOD THEREOF, AND USE THEREOF IN PREVENTING, ALLEVIATING, OR TREATING MULTIPLE SCLEROSIS” (Cureverse Incorporated, priority 2022, published 2026)

Assays:
[1] = background art; cited from earlier work
S1P1 [2] = target: T1, S1P1 (Homo sapiens, UniProt P21453); details: background art; cited from earlier work
S1P5 = details: background art; cited from earlier work
S1P3 receptor = details: background art; cited from earlier work
S1P1 [3] = target: T1, S1P1; assay: β-arrestin recruitment after S1P1 receptor activation, S1P1 overexpressing cell line (luminescence); details: based on the two EC50 values of Table 1

T1 sequence (P21453 whole entry): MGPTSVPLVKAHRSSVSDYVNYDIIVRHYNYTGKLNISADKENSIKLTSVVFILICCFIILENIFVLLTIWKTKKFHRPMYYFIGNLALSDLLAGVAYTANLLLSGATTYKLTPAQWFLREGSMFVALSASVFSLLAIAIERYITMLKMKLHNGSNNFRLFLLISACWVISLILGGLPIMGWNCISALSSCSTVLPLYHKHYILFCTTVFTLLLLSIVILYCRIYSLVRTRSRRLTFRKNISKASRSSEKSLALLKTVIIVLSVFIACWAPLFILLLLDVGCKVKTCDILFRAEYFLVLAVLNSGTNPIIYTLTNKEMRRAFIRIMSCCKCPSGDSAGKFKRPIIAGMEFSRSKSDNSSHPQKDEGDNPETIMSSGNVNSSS

CCc1cc(/C(C)=N/OCc2ccc(C3CCCCC3)c(C(F)(F)F)c2)ccc1CN1CC(C(=O)O)C1 [BAF312]
bradycardia side effect [1]: bradycardia, a side effect of FTY720, still occurred | activity against S1P1 (S1P1 [2]): excellent activity | activity against S1P5 (S1P5): excellent activity | activation of S1P3 (S1P3 receptor): without activating S1P3

CC(C)Oc1ccc(-c2ncc(-c3ccc(CN4CC(C(=O)[O-])C4)cc3)[se]2)cc1Cl.[Na+] [Compound 13, Sodium 1-(4-(2-(3-chloro-4-isopropoxyphenyl)-1,3-selenazole-5-yl)benzyl)azetidine-3-carboxylate]
S1P1 activity (overall, in words) (S1P1 [3]): excellent activity

CCCCCCCCc1ccc(CCC(N)(CO)CO)cc1 [fingolimod]
bradycardia side effect [1]: causes bradycardia | activation of S1P3 (S1P3 receptor): activation of the S1P3 receptor
